Where two headings read alike, the source gives them in different places. Marks after values point to notes of the source that are not given here.
Columns and labels:
pancreatic carcinoma [1] = test: Second line therapy following progression on FOLFIRINOX (literature studies); assay type: in vivo, human; conditions: Overall (mean)
Description: Overall Survival (OS) increased from 6.8 months with Gemcitabine to 11.1 months with FOLFIRINOX (p<0.001). However, the Complete Response Rate (CR) was only 0.6%.

[2] = tested on: locally advanced and metastatic pancreatic carcinoma; conditions: first line therapy; n = 171 per arm; cited from earlier work
pancreatic carcinoma [3] = conditions: second line, cited from earlier work
pancreatic tumors = assay type: in vivo, mice; conditions: n = 8 each
Description: This is highly relevant for improving the likelihood of an antitumor response to checkpoint blockade.
See, FIG. 4, panels labeled “Time-to-tumor progression.”

[4] = tested on: human bladder tumor xenografts; test: Human bladder tumor xenografts in nude mice; assay type: in vivo
[5] = tested on: human renal cell carcinoma xenografts (786-0); test: Human renal cell carcinoma (786-0) xenografts in nude mice; assay type: in vivo; conditions: monotherapy
[6] = tested on: human renal cell carcinoma xenografts (786-0); conditions: Hubbell, 1990, cited from earlier work
B16-F10 melanoma tumors = conditions: Day 30, n = 10; for Number of Complete Responses (CR): RECIST v1.1
Description: Rintatolimod together with anti-PD-L1 antibodies were tested for anti-tumor activity against established subcutaneous B16 melanoma tumors in C57BL/6 mice. Mice (10 animals per group) were inoculated with 0.4×10E6 B16-F10 tumor cells in their shaved rear flanks. Seven days later (when tumors reached 0.3 to 0.5 cm in their largest diameter), mice were randomized for tumor sizes, and individually tagged and were allocated to the following six treatment groups: • No treatment (negative controls) • Rintatolimod alone 100 μg/dose 4× • Rintatolimod alone 250 μg/dose 4× • Anti-PD-L1 mAb alone • Rintatolimod 100 μg/dose 4× plus anti-PD-L1 mAb • Rintatolimod 250 μg/dose 4× plus anti-PD-L1 mAb
Rintatolimod was injected intravenously at 100 or 250 micrograms/dose and was repeated 4 times, 5 days apart. Anti-PD-L1 mAb (clone 10F.9G2, BioXCell) was administered intraperitoneally on Days 1 and 3 after each rintatolimod injection at a 200 microgram/dose. Tumors were measured 3 times per week using a set of calipers, taking measurement of 2 opposing diameters and were recorded as tumor areas.
Results were presented as tumor sizes for individual mice throughout time of therapy, average tumor size in each group and survival up to Day 30 (time to euthanasia).
[sequence] and anti-PD-L1 antibodies were tested for anti-tumor activity against established subcutaneous B16 melanoma tumors in C57BL/6 mice. Briefly, mice (10 animals per group) were inoculated with 0.4×10E6 (i.e., 400,000) B16-F10 tumor cells in their shaved rear flanks. Seven days later, mice were randomized to six treatment groups as follows: (Group 1) No treatment (negative controls); (Group 2) [sequence] alone 100 μg/dose 4λ; (Group 3) [sequence] alone 250 μg/dose 4λ; (Group 4) Anti-PD-L1 mAb alone; (Group 5) [sequence] 100 μg/dose 4× plus anti-PD-L1 mAb; (Group 6) [sequence] 250 μg/dose 4× plus anti-PD-L1 mAb. mAb refers to monoclonal antibody.
[sequence] was injected IV at 100 or 250 μg/dose 4 times, 5 days apart. Anti-PD-L1 mAb was administered IP on Days 1 and 3 after each [sequence] dose at 200 μg/dose. Tumors were measured 3 times per week using calipers, measuring 2 opposing diameters. […] Results were presented as tumor sizes for individual mice throughout time of therapy up to Day 30.

Compound: Nc1ccn([C@@H]2O[C@H](CO)[C@@H](O)C2(F)F)c(=O)n1 [Gemcitabine]
- Partial Response Rates (PR) (%) (pancreatic carcinoma [1]; weighted average): 6.4%*
- Progression Free Survival (PFS) (months) (pancreatic carcinoma [1]; weighted average): 2.24* months
- Overall Survival (OS) (months) (pancreatic carcinoma [1]; weighted average based on n in each study): 4.05* months
- Complete Response Rates (CR) (%) [2]: (0) %
- Complete Response Rates (CR) n [2]: 0 n
- Overall Survival (OS) (months) [2]: 6.8 months
- Partial Response Rates (PR) (%) [2]: (9.4) %
- Partial Response Rates (PR) n [2]: 16 n
- Progression Free Survival (PFS) (months) [2]: 3.3 months
- Progression Free Survival (PFS) (months) (pancreatic carcinoma [3]; Gilabert, et al. 2017, 72 patients): 2.5 months
- Overall Survival (OS) (months) (pancreatic carcinoma [3]; Viaud, et al 2017, 96 patients): 3.7 months
- Progression Free Survival (PFS) (months) (pancreatic carcinoma [3]; Viaud, et al 2017): 2.1 months
- Overall Survival (OS) (months) (pancreatic carcinoma [3]; da Rocha, et al. 2015, 20 patients): 5.7 months
- Progression Free Survival (PFS) (months) (pancreatic carcinoma [3]; da Rocha, et al. 2015): 2.0 months

Compound: polyriboinosinic: polyribocytidylic(12:1)uridylic acid
- Increased Survival Over Control (pancreatic tumors; difference to control (33)): 0 days
- Time to Progression Median-Days (pancreatic tumors; initial results): 33 days
- growth of human bladder tumor xenografts [4]: significantly inhibited
- tumor regression [5]: tumor regression was observed in each mouse
- mice free of residual tumor ([5]; while 100% of the control group had died): 90%
- tumor growth inhibition ([6]; p<0.001): statistically significant
- survival ([6]; p<0.002): statistically significant
- Number of Partial Responses (PR) (B16-F10 melanoma tumors; rintatolimod 100 μg/dose 4× IV): 0
- Total # Tumor Responses CR + PR (B16-F10 melanoma tumors; rintatolimod 100 μg/dose 4× IV): 0
- Number of Complete Responses (CR) (B16-F10 melanoma tumors; rintatolimod 100 μg/dose 4× IV): 0
- Number of Partial Responses (PR) (B16-F10 melanoma tumors; rintatolimod 250 μg/dose 4× IV): 0
- Total # Tumor Responses CR + PR (B16-F10 melanoma tumors; rintatolimod 250 μg/dose 4× IV): 0
- Number of Complete Responses (CR) (B16-F10 melanoma tumors; rintatolimod 250 μg/dose 4× IV): 0

— patent US11813279B2, “Compositions for cancer therapy and methods” (AIM IMMUNOTECH INC., priority 2018, dated 2023)
